# In patent publication US5681604A, “Stain-inhibiting agent for dyes with affinity for protonatable nitrogen, compositions containing same and uses thereof” (priority 1993, dated 1997):
# Key:
# [1] = Stain inhibition: 66 nylon yarn immersed in F, D & C Red 40 / citric acid staining solution
# Method: 3. […] A second yarn sample, Sample 2B, was immersed in staining/stain-inhibitor solution, Solution B, also for one minute. Both samples were then dried for 24 hours.
# 2. […] Thus, Solution 3B was prepared by adding 100 ppm of the ECG to Solution 3A.
# Titration with NaOH = assay type: physicochemical
# mice = settings: oral, in mice; cited from earlier work
# [2] = commercially-available tannic acid from natural sources; cited from earlier work
# [3] = Stain inhibition: 66 nylon carpet soaked in cherry KOOL-AID solution; settings: for AATCC Staining Scale Rating: 1 min soak, dried 24 h; for CIE L / CIE a / CIE b: Minolta Chromameter
# Method: (§1) Each solution was prepared by mixing 1 gram of the KOOL-AID® powder with enough water to make 450 to 500 cm^3 of solution.
# (§2) Solution 1A: prepared as set forth above, no sugar added.
# (§3) Solution 1B: Solution 1A+50 parts per million (ppm) tannic acid (certified, Fisher Scientific Co.).
# (§4) Solution 1C: Solution 1A+200 ppm tannic acid (same tannic acid as in Solution 1B, hereafter "TA").
# (§5) After the solutions were prepared, four 1 in^2 (6.45 cm^2) samples (Carpet Samples 1A, 1B, 1C, and Control) were cut from twisted, heat-set 66 nylon carpet, mock-acid dyed, and four 1-gram samples of 66 nylon skein (Test Fabrics, Middlesex, N.J.) were obtained (Yarn Samples 1A, 1B, 1C, and Control). Carpet Samples 1A, 1B, and 1C were soaked in 50 ml. of Solutions 1A, 1B, and 1C, respectively, for 1 minute, and allowed to dry for 24 hours. The Carpet Control Sample was not exposed to any of the solutions. The same procedure was followed with Yarn Samples 1A, 1B, 1C, and Control. (The carpet and skeins had been scoured in 0.1% non-ionic detergent to remove surface grease and finish.)
# (§6) All samples were rinsed thoroughly in distilled water, and allowed to dry.
# (§7) The amount of staining on each sample was evaluated by comparison with the AATCC Staining Scale (AATCC Test Method, 175-1991), and by the CIE L, a, b values obtained from the Minolta Chromameter.
# [4] = Stain inhibition: 66 nylon skein (yarn) soaked in cherry KOOL-AID solution; settings: for AATCC Staining Scale Rating: 1 min soak, dried 24 h; for CIE L / CIE a / CIE b: Minolta Chromameter
# Method: as §1, §2, §3, §4, §5, §6, §7
# [5] = Stain-inhibiting activity (general statements)
# [6] = 50 ppm TA in cherry KOOL-AID solution
# [7] = 200 ppm TA in cherry KOOL-AID solution
compound,measurement,setting,value
"O=C(O[C@@H]1Cc2c(O)cc(O)cc2O[C@@H]1c1ccc(O)c(O)c1)c1cc(O)c(O)c(O)c1 [ECG, Epicatechin gallate]",AATCC,"[1]; 100 ppm ECG in Red 40 staining solution pH 2.8, 1 min",7
same,CIE L,"[1]; 100 ppm ECG, Chromameter",81
same,CIE a,"[1]; 100 ppm ECG, Chromameter",4
same,CIE b,"[1]; 100 ppm ECG, Chromameter",2
"O=C(OC[C@H]1O[C@@H](OC(=O)c2cc(O)c(O)c(OC(=O)c3cc(O)c(O)c(O)c3)c2)[C@H](OC(=O)c2cc(O)c(O)c(OC(=O)c3cc(O)c(O)c(O)c3)c2)[C@@H](OC(=O)c2cc(O)c(O)c(OC(=O)c3cc(O)c(O)c(O)c3)c2)[C@@H]1OC(=O)c1cc(O)c(O)c(OC(=O)c2cc(O)c(O)c(O)c2)c1)c1cc(O)c(O)c(OC(=O)c2cc(O)c(O)c(O)c2)c1 [TA, tannic acid]",inflection point pH when titrated with NaOH,Titration with NaOH,about 4.5
same,LD50,mice,6000 mg/kg
same,water solubility,[2],water soluble
same,AATCC Staining Scale Rating,[3]; [6],6
same,CIE L,[3]; 50 ppm TA,78
same,CIE a,[3]; 50 ppm TA,9
same,CIE b,[3]; 50 ppm TA,3
same,AATCC Staining Scale Rating,[3]; [7],10
same,CIE L,[3]; 200 ppm TA,83
same,CIE a,[3]; 200 ppm TA,0.8
same,CIE b,[3]; 200 ppm TA,2
same,AATCC Staining Scale Rating,[4]; [6],7
same,CIE L,[4]; 50 ppm TA,81
same,CIE a,[4]; 50 ppm TA,12
same,CIE b,[4]; 50 ppm TA,4
same,AATCC Staining Scale Rating,[4]; [7],9
same,CIE L,[4]; 200 ppm TA,83
same,CIE a,[4]; 200 ppm TA,8
same,CIE b,[4]; 200 ppm TA,4
Oc1cccc(O)c1O [pyrogallol],stain-inhibiting activity,[5],do not appear to exhibit stain-inhibiting activity
Oc1cccc(O)c1 [resorcinol],stain-inhibiting activity,[5],do not appear to exhibit stain-inhibiting activity
